From PubChem BioAssay (NCI)
Where “and” joins values, the source holds several entries; their conditions need not be identical. Identical values can stand only once.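 Assay format: 96-well plates, 48-hour exposure. The concentration for 50% growth inhibition is given as GI50. Definition used: TGI = concentration required for complete inhibition of growth.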

Assays:
Assay in all cases: NCI tumour cell line growth inhibition, 48 h
A498 renal = tested on: A498 renal
EKVX NSCLC = tested on: EKVX NSCLC
SF-295 CNS = tested on: SF-295 CNS
SF-539 CNS = tested on: SF-539 CNS
UACC-257 melanoma = tested on: UACC-257 melanoma
OVCAR-5 ovarian = tested on: OVCAR-5 ovarian
SNB-19 CNS = tested on: SNB-19 CNS
786-0 renal = tested on: 786-0 renal
SW-620 colon = tested on: SW-620 colon

Row | Compound | TGI (A498 renal) [µM] | TGI (EKVX NSCLC) | TGI (SF-295 CNS) | TGI (SF-539 CNS) | TGI (UACC-257 melanoma) | TGI (OVCAR-5 ovarian) | TGI (SNB-19 CNS) | TGI (786-0 renal) | TGI (SW-620 colon) | GI50 (A498 renal) [µM] | GI50 (EKVX NSCLC) [µM] | GI50 (SF-295 CNS) [µM] | GI50 (SF-539 CNS) [µM] | GI50 (UACC-257 melanoma) [µM] | GI50 (OVCAR-5 ovarian) [µM] | GI50 (SNB-19 CNS) [µM] | GI50 (786-0 renal) [µM] | GI50 (SW-620 colon) [µM]
1 | Cc1ccc(-n2nc(C(OC3OC(CO)C(O)C(O)C3O)C(O)CO)c3nc4cc(C)c(C)cc4nc32)cc1 (centres undefined) | > 100 | > 100 µM | > 100 µM | > 100 µM | > 100 µM | > 100 µM | > 100 µM | > 100 µM |  |  |  |  |  |  |  |  |  | 
2 | Cc1nc2ccncc2[nH]1 | > 100 | > 100 µM | > 100 µM | > 100 µM | > 100 µM | > 100 µM | > 100 µM | > 100 µM | > 100 µM |  |  |  |  |  |  |  |  | 
3 | CCCCCCCCCCCCCC(=O)O[C@H]1CC[C@H](NC(=O)[C@H](OC)[C@H](O)[C@@H](O)[C@H](O)/C=C/C(C)C)C(=O)N(C)C1 | > 23.8 | 15 µM and > 23.8 µM | 15 µM and 3.03 µM | 15 µM and > 23.8 µM | 15 µM and 13 µM | 15 µM and > 23.8 µM | 15 µM and > 23.8 µM | 15 µM and 3.18 µM | 15 µM and 5.48 µM | 0.453 | 1.36 | 0.00238 | 0.0126 | 0.00238 | > 23.8 | 0.0093 | 0.00238 | 0.00238
4 | O=C(Nc1nc(=S)[nH][nH]1)C(=O)C(c1cnc2ccc([N+](=O)[O-])cc2n1)[N+](=O)[O-] (centres undefined) | > 100 | > 100 µM | > 100 µM | > 100 µM | > 100 µM | > 100 µM | > 100 µM | > 100 µM | > 100 µM |  |  |  |  |  |  |  |  | 
5 | CCOC(=O)C(Cc1ccc(N=NN(C)C)cc1)NC(=O)CC1c2ccccc2-c2ccccc21 (centres undefined) | > 100 | > 100 µM | > 100 µM | > 100 µM | > 100 µM | > 100 µM | > 100 µM | > 100 µM | > 100 µM |  |  |  |  |  |  |  |  | 
6 | O=C(O)c1ccccc1C(=O)c1ccco1 | > 100 | > 100 µM | > 100 µM | > 100 µM | > 100 µM | > 100 µM | > 100 µM | > 100 µM | > 100 µM |  |  |  |  |  |  |  |  | 
7 | CC1CCCP(=O)(c2ccccc2)CCC1 (centres undefined) | > 100 | > 100 µM | > 100 µM | > 100 µM | > 100 µM | > 100 µM | > 100 µM | > 100 µM | > 100 µM |  |  |  |  |  |  |  |  | 
8 | COC(=O)C1CCC(C)CC1=O (centres undefined) | > 100 | > 100 µM | > 100 µM | > 100 µM | > 100 µM | > 100 µM | > 100 µM | > 100 µM | > 100 µM |  |  |  |  |  |  |  |  | 
9 | COc1ccccc1/C=C(\NC(=O)c1ccccc1)c1nc2ccc(Cl)cc2[nH]1 | 80.9 | 78.7 µM |  | > 100 µM | > 100 µM | > 100 µM | > 100 µM | 87.1 µM | > 100 µM |  |  |  |  |  |  |  |  | 
10 | C/C(CCN(C)C)=N/O | 35.1 | 28.8 µM | 81.5 µM | 1.89 µM | 33.2 µM | 32.9 µM | > 100 µM | 13.2 µM | 6.71 µM |  |  |  |  |  |  |  |  | 
11 | Cc1ccc(-n2c3nc(=O)n(C)c(=O)c-3nc3ccccc32)c(C)c1 |  | 21.6 µM | 22.9 µM | 26.4 µM | 12.6 µM | 32.7 µM | 16.1 µM | 42.1 µM | 19.1 µM |  |  |  |  |  |  |  |  | 
12 | O=C1C=CC2(CCC23C=CC(=O)O3)O1 (centres undefined) | > 100 | > 100 µM | > 100 µM | > 100 µM | > 100 µM | > 100 µM | > 100 µM | > 100 µM | > 100 µM |  |  |  |  |  |  |  |  | 
13 | C/C(=N\NC(=S)N1CCC1)c1ccccn1 | 10.6 | 48.6 µM | 49.2 µM | 5.31 µM | 1.42 µM | 49.9 µM | > 100 µM | > 52.4 µM | > 100 µM |  |  | 0.0285 | 0.0629 | 0.00326 | 0.00689 |  | 0.0555 | 0.0367
14 | O=C([O-])c1ccc([I+]c2ccccc2)cc1 | > 100 | > 100 µM | > 100 µM | > 100 µM | > 100 µM | > 100 µM | > 100 µM | > 100 µM | > 100 µM |  |  |  |  |  |  |  |  | 
15 | CCOC(=O)C[C@@]12CCCN[C@]1(C)CCc1ccccc12 | > 100 | > 100 µM | > 100 µM | > 100 µM |  | > 100 µM | > 100 µM | > 100 µM | > 100 µM |  |  |  |  |  |  |  |  | 
16 | Cc1ccc(S(=O)(=O)Nc2ccccc2C(C)(C)C)cc1 | 59.7 | > 100 µM | 32 µM | 33.9 µM | 35.4 µM | > 100 µM |  | 62.5 µM | > 100 µM |  |  |  |  |  |  |  |  | 
